Patent publication US20130039956A1, “USE OF NITROCARBOXYLIC ACIDS FOR THE TREATMENT, DIAGNOSIS AND PROPHYLAXIS OF AGGRESSIVE HEALING PATTERNS” (priority 2010, published 2013)

Tests used:
[1] = test system: adult rats; assay: Fibrogenesis after traumatic and thermal tissue damage in dermal wound healing in vivo; parameters: species or system rat; details: 100 micromol ethanolic solution on wound margins, 8 weeks, compared with native FA
Source text: In order to determine the effects of nitrated fatty acids on fibrogenesis in response to traumatic and thermal tissue damage, an in vivo rat model was investigated. Paravertebral scalpel incision (two on each side) of approximately 1 cm in length and a depth of 1 mm were made in 12 anesthetized adult rats (150-200 g) of either sex after disinfection. Bleeding was stopped by manual compression. The entire length of the wound margins of one incision at each side were additionally cauterized using a 3-mm ball electrode connected to a DRE ASG-120 electrosurgical generator. Wound margins of one side were then covered with a sterile ethanolic 0.9% saline solution, or with a sterile ethanolic solution of the fatty acids (100 micromol), or with a sterile ethanolic solution of the nitrated fatty acids (100 micromol) using a sterile brush. A 1×10 mm cotton string that was bathed in the ethanolic solution containing 0.9% saline, native fatty acid or nitrated fatty acids was placed upon the incision site that had been closed by manual adaptation. The adaptation result and the cotton strings were fixed by an adhesive film. The animals were housed and fed according to institutional standards. The wound films were carefully removed after 2 weeks. Animals were euthanized after 8 weeks. The skin wounds were harvested, including the epidermis, dermis, and subcutaneous loose tissue with the surrounding normal tissue. The removed tissues were fixed in formalin and then embedded in paraffin. The cutting plane was vertical to the longitudinal axis of the former incisions. Slices (4-6 μm) were stained with H&E and Masson trichrome staining to evaluate the amount and density of collagen.

[2] = test system: human dermal fibroblasts; assay: Extra cellular matrix production (collagen-1) in response to TGF-β2 in dermal fibroblasts; type: cell-based; details: 10 and 50 μmol, TGF-β2 25 ng/ml, 48 hours; compared with native FA
Experimental: In order to determine whether PPRA gamma stimulation due to nitrated fatty acids plays a role in the inventive inhibition of an aggressive healing pattern to an irritating stimulus, human dermal fibroblasts were investigated. A dominant-negative PPAR gamma mutant (L466A) cell clone was generated by polymerase chain reaction-based site-directed mutagenesis. Presence of PPAR gamma or absence was investigated using a PPAR gamma antibody reaction which was determined using an enhanced chemiluminescence detection system. Furthermore, one cell series was incubated with a selective irreversible PPAR gamma ligand (GW9662, 1 μmol), which effectively blocks PPAR gamma receptors.
Sequential cultivation of human dermal fibroblasts was performed in EMEM containing 5 mM glucose supplemented with 10% FCS under standard cultivation conditions. Cells were allowed to grow to confluence in a 96-well plate. Wild-type fibroblasts and PPAR gamma deficient fibroblasts were investigated by a set-up of 2×10 sample sets comprising: (1) blank control; (2) stimulation control; (3) preincubation with the PPAR gamma antagonist GW9662 (Cayman Chemical); (4) preincubation with the PPAR agonist troglitazone (25 μmol). In 2×4 sample sets, native fatty acids were added to the medium to achieve a final concentration of 10 and 50 μmol, respectively; in another 2×4 sets the nitrated fatty acids were added to the medium in the same concentration, while 2×2 sets served as controls. In 10 of the sets, TGF-β2 was added to the culture medium at a concentration of 25 ng/ml. Cultivation was continued for 48 hours and then processed in order to analyze collagen-1 as measured by enhanced chemiluminescence detection of immuncomplexes.

[3] = test system: fibroblasts; assay: Mechanical alteration of fibroblasts (cyclic stretching of coated polypropylene meshes); type: cell-based; details: cyclic stretching, day 7, day 21, 8 weeks, compared with native FA
Source text: In order to simulate the effects of chronic shear forces on a healing wound, an in vitro model was established. A flat balloon was placed on the bottom of a Petri dish. A silicone sheet was placed above and sealed with the side of the Petri dish. Then a 3 mm agar layer was casted on top of the sheet. Commercially available polypropylene meshes for hernia repair (microporous mesh, a low-weight and macroporous mesh with absorbable polyglactin filaments, and a heavy-weight and microporous mesh) were placed on the agar plates and fixed at 4 points at the side of the Petri dish. This setting enabled stretching of the meshes by filling the balloons with air, which was performed at 10-second intervals using an automated pumping device. The model can be used to evaluate the effect of three-dimensional (3D) shear forces on cell growth during cell cultivation. Preincubated suspensions of fibroblasts (1.5×10(5) cells) in a culture medium (10% FCS) were added to the culture dishes and allowed to grow for 48 hours. Cyclic stretching was started at day 3. Histological analysis was performed from the central portions of the meshes at day 7, at day 21, and after 8 weeks. The scaffolds were detached from the culture plate and carefully rinsed. Then, they were cut into pieces, casted, and further processed for standard histology and immunohistology. Care was taken to achieve a cutting plane that was vertical to the surface plane of the meshes. Histological analysis evaluated the cellularity, the content of extra cellular matrix (ECM), and the magnitude of protein synthesis. Meshes were dip-coated with native and nitro fatty acids or left blank in the same manner as in example 1. The uncoated meshes served as controls.

[4] = test system: fibroblasts; assay: Biofouling and cell adherence at prosthetic materials (dip-coated polymer films); type: cell-based; details: compared with native FA (control)
Experimental: Polymer scaffolds (polyurethane, polyvinylchloride, polylactate) which are used as implant materials were investigated. Solid and porous (pore sizes ranging from 50 to 150 micrometer) films of pure polymer scaffolds were cut into pieces (5×5 mm). After cleaning with NaOH and ethanol, they were dip-coated with native and nitrocarboxylic acids. Dip-coated pieces were suspended in a tube filled with argon and heated at 60° C. for 24 hours in the dark. Film pieces with and without coating were placed in a borosilicate glass tube that allowed fixation of two margins of the film pieces at the wall of the glass tube, thus, enabling a upright standing position in the center of the tube. Tubes were filled with various solutions for 12 hours. Solutions consisted of the following: 0.9% saline; 2% bovine albumin; 2% bovine albumin with addition of either fibronectin or laminin; and bovine serum. At the end of the exposure time, tubes were gently washed twice with 0.9% saline solution. One set of films was analyzed for protein absorption using a specific antibody staining method. An identically prepared set of films was further processed for cell cultures. A suspension containing preincubated fibroblasts in 1% FCS was added to the film-containing tubes. The tubes were tilted and adjusted in such a position so that the films were in a vertical orientation within the suspension. […] Tubes had two openings at the upper half (of the tilt tubes) that allowed free exchange of the atmosphere above the solution with the surrounding atmosphere. Sets were incubated at standard conditions for 24, 48, and 96 hours, respectively. Thereafter, films were carefully removed and rinsed with 0.9% saline solution. The cellularity and the shape of the cells on both sides of the films were evaluated after staining (Gimsa) using a reflected light microscope.
Also: key: 0: not superior to native FA (control); +: Superior to native FA; ++: superior to both; +++: outstanding effect.

## CCCCC=C(C=CC=CCCCCCCCC(=O)O)[N+](=O)[O-] [compound 11, 13-nitro-octadeca-9,11,13-trienoic acid]
[1]
  Relative effect on fibrogenesis (scar formation) in dermal wound healing: +
[2]
  Relative effect on collagen-1 production in response to TGF-β2: +
[3]
  Relative effect on fibroblasts under mechanical alteration: +
[4]
  Relative differences: effect on biofouling and cell adherence: +

## CCCCCCCC/C(=C\CCCCCCCC(=O)O)[N+](=O)[O-] [compound 12, 10-nitro-trans-oleic acid]
[1]
  Relative effect on fibrogenesis (scar formation) in dermal wound healing: 0
[2]
  Relative effect on collagen-1 production in response to TGF-β2: +
[3]
  Relative effect on fibroblasts under mechanical alteration: +
[4]
  Relative differences: effect on biofouling and cell adherence: +

## CCCCCC/C=C(/CCCCCCCC(=O)O)[N+](=O)[O-] [compound 13]
[1]
  Relative effect on fibrogenesis (scar formation) in dermal wound healing: +
[2]
  Relative effect on collagen-1 production in response to TGF-β2: +
[3]
  Relative effect on fibroblasts under mechanical alteration: +
[4]
  Relative differences: effect on biofouling and cell adherence: +

## CCCCCC=CCC=C(CC=CCC=CCCCC(=O)O)[N+](=O)[O-] [compound 14, 11-nitro-5,8,11,14-eicosatrienoic acid]
[1]
  Relative effect on fibrogenesis (scar formation) in dermal wound healing: +
[2]
  Relative effect on collagen-1 production in response to TGF-β2: +
[3]
  Relative effect on fibroblasts under mechanical alteration: 0
[4]
  Relative differences: effect on biofouling and cell adherence: +

## CCCCCC/C=C(\CCCCCCCC(=O)O)[N+](=O)[O-] [compound 16, 9-nitro-9-trans-hexadecenoic acid]
[1]
  Relative effect on fibrogenesis (scar formation) in dermal wound healing: +
[2]
  Relative effect on collagen-1 production in response to TGF-β2: 0
[3]
  Relative effect on fibroblasts under mechanical alteration: ++
[4]
  Relative differences: effect on biofouling and cell adherence: ++

## CCCCCCCC/C=C(/CCCCCCCCCCCC(=O)O)[N+](=O)[O-] [compound 17, 13-nitro-cis-13-docosenoic acid]
[1]
  Relative effect on fibrogenesis (scar formation) in dermal wound healing: +
[2]
  Relative effect on collagen-1 production in response to TGF-β2: +
[3]
  Relative effect on fibroblasts under mechanical alteration: +
[4]
  Relative differences: effect on biofouling and cell adherence: +

## CCCCC/C=C(/C/C=C\C/C=C(/C/C=C\CCCC(=O)O)[N+](=O)[O-])[N+](=O)[O-] [compound 18, 8,14-nitro-cis-5,8,11,14-eicosatetraenoic acid]
[1]
  Relative effect on fibrogenesis (scar formation) in dermal wound healing: +
[2]
  Relative effect on collagen-1 production in response to TGF-β2: +
[3]
  Relative effect on fibroblasts under mechanical alteration: +
[4]
  Relative differences: effect on biofouling and cell adherence: +

## CCC=CCC=C(CC=CCC=CCC=CCC=C(CCC(=O)O)[N+](=O)[O-])[N+](=O)[O-] [compound 19, 4,16-nitro-docosahexaenoic acid]
[1]
  Relative effect on fibrogenesis (scar formation) in dermal wound healing: +
[2]
  Relative effect on collagen-1 production in response to TGF-β2: +
[3]
  Relative effect on fibroblasts under mechanical alteration: ++
[4]
  Relative differences: effect on biofouling and cell adherence: +

## CCCCCC=CCC=C(CC=CC/C=C\CCCC(=O)O)[N+](=O)[O-] [compound 22, 11-nitro-cis-5,8,11,14-eicosatetraenoic acid]
[1]
  Relative effect on fibrogenesis (scar formation) in dermal wound healing: ++
[2]
  Relative effect on collagen-1 production in response to TGF-β2: ++
[3]
  Relative effect on fibroblasts under mechanical alteration: ++
[4]
  Relative differences: effect on biofouling and cell adherence: +
